Source: the CheMixHub viscosity set
Where “and” joins values, the source holds several entries; their conditions need not be identical. Equal entries are not always repeated.

Assay: xn = mol fraction of the nth substance listed
Details: 101 kPa

NCCN + OCCCCO
viscosity [mPa·s]
Details	293.15 K	298.15 K	303.15 K	308.15 K	313.15 K	318.15 K
x1 = 0.0733	100	74.8	55.2	43.2	33.4	–
x1 = 0.1427	101	75.2	55.3	44.5	33.8	–
x1 = 0.2094	98.8	72.8	53.1	42.5	32	28.8
x1 = 0.2728	92.3	67.6	49.1	39.1	29.5	25.8
x1 = 0.3334	82.3	60.1	43.5	34.4	25.7	22.6
x1 = 0.3913	69.3	50.5	36.8	29.2	22	19.3
x1 = 0.4467	55.9	40.8	29.9	23.7	18.2	16.1
x1 = 0.4999	42.7	31.5	23.4	19	14.5	12.9
x1 = 0.551	32.1	23.8	18	14.6	11.3	10.3
x1 = 0.5999	23.8	17.9	13.7	11.3	8.84	8.14
x1 = 0.6469	17.4	13.2	10.2	8.63	7.05	6.33
x1 = 0.6921	12.7	9.92	7.8	6.62	5.34	4.99
x1 = 0.7358	9.34	7.44	5.91	5.11	4.17	3.95
x1 = 0.7777	7.02	5.61	4.57	4	3.28	3.13
x1 = 0.8181	5.28	4.3	3.53	3.15	2.61	2.51
x1 = 0.8572	4.06	3.38	2.78	2.5	2.1	2.02
x1 = 0.9311	2.51	2.11	1.78	1.63	1.41	1.37

CCC(O)CO (stereo unspecified) + O
viscosity
Details	293.15 K	298.15 K	303.15 K	308.15 K	313.15 K	318.15 K	323.15 K
x1 = 0.005	1.087 mPa·s	0.964 mPa·s	0.865 mPa·s	0.783 mPa·s	–	–	–
x1 = 0.0099	–	–	0.935 mPa·s	0.838 mPa·s	0.756 mPa·s	0.687 mPa·s	0.628 mPa·s
x1 = 0.01	1.188 mPa·s	1.034 mPa·s	0.919 mPa·s	0.824 mPa·s	–	–	–
x1 = 0.015	1.285 mPa·s	1.129 mPa·s	0.978 mPa·s	–	–	–	–
x1 = 0.02	1.372 mPa·s	1.204 mPa·s	1.099 mPa·s and 1.052 mPa·s	0.976 mPa·s	0.874 mPa·s	0.789 mPa·s	0.716 mPa·s
x1 = 0.0299	–	–	1.268 mPa·s	1.117 mPa·s	0.993 mPa·s	0.89 mPa·s	0.802 mPa·s
x1 = 0.0401	–	–	1.459 mPa·s	1.275 mPa·s	1.126 mPa·s	1.002 mPa·s	0.9 mPa·s
x1 = 0.0496	–	–	1.639 mPa·s	1.422 mPa·s	1.247 mPa·s	1.104 mPa·s	0.986 mPa·s
x1 = 0.0599	–	–	1.856 mPa·s	1.599 mPa·s	1.394 mPa·s	1.229 mPa·s	1.092 mPa·s
x1 = 0.0701	–	–	2.073 mPa·s	1.776 mPa·s	1.54 mPa·s	1.351 mPa·s	1.193 mPa·s
x1 = 0.0799	–	–	2.279 mPa·s	1.944 mPa·s	1.679 mPa·s	1.467 mPa·s	1.292 mPa·s
x1 = 0.0899	–	–	2.493 mPa·s	2.12 mPa·s	1.823 mPa·s	1.587 mPa·s	1.395 mPa·s
x1 = 0.0999	–	3.41 mPa·s	2.736 mPa·s and 2.855 mPa·s	2.311 mPa·s and 2.445 mPa·s	1.98 mPa·s and 2.138 mPa·s	1.718 mPa·s	1.506 mPa·s
x1 = 0.2006	–	6.704 mPa·s	5.489 mPa·s	4.586 mPa·s	3.907 mPa·s	–	–
x1 = 0.3009	–	10.27 mPa·s	8.312 mPa·s	6.887 mPa·s	5.759 mPa·s	–	–
x1 = 0.4001	–	14.49 mPa·s	11.54 mPa·s	9.39 mPa·s	7.779 mPa·s	–	–
x1 = 0.5025	–	19.54 mPa·s	15.45 mPa·s	12.42 mPa·s	10.14 mPa·s	–	–
x1 = 0.5987	–	25.28 mPa·s	19.39 mPa·s	15.5 mPa·s	12.54 mPa·s	–	–
x1 = 0.702	–	31.76 mPa·s	24.06 mPa·s	18.94 mPa·s	15.12 mPa·s	–	–
x1 = 0.8038	–	38.27 mPa·s	28.82 mPa·s	22.48 mPa·s	17.7 mPa·s	–	–
x1 = 0.8972	–	45.12 mPa·s	33.44 mPa·s	25.72 mPa·s	20.14 mPa·s	–	–
